Experimental findings from patent publication US20050165082A1, “Methods of treating vasomotor symptoms” (Wyeth, priority 2003, published 2005) are described below.

“Also recorded” adds a separate entry of the source.

One may read the ED50 as the dose at which the effect has come halfway, by size or by number of responders.

Assay [1] relates to naloxone-induced flush in morphine-dependent ovariectomized rats. Nature of the assay: Morphine-dependent rat model: naloxone-induced flush, tail skin temperature (TST). The format is in vivo. The protocol:
(§1) Dosing: All doses were prepared based on mg/kg. All compounds were administered intraperitoneally and dissolved and used at the following dosages: SSR149415 (V1b receptor antagonist, 3.0-30 mg/kg was dissolved in 5% DMSO in 5% Cremophor EL). SSR49059 (V1a receptor antagonist, 30 mg/kg was dissolved 10% DMSO/sterile H2O) and VPA-985 (V2 receptor antagonist, 30 mg/kg was dissolved 10% DMSO/sterile H2O). Naloxone (1.0 mg/kg was dissolved in sterile H2O) was injected subcutaneously.
Animals: Ovariectomized Sprague-Dawley rats (180-220 g) were obtained from a commercial vendor (Taconic, Germantown, N.Y.) and individually housed under 12 hours light/dark cycle in a room maintained at 25° C. Animals were provided with standard rat chow and water ad libitum.
Morphine-dependent model: Ovariectomized rats were injected once daily for 8-9 days with vehicle to minimize stress responses and then administered compound(s) on test day (10 rats/group). On day 4 of vehicle dosing, morphine dependence was induced by sc implantation of two slow-release morphine pellets (75 mg/pellet) in the dorsal scapular region. This model is based upon an established morphine-dependent naloxone-induced flush paradigm that is reversible by estrogen treatment (Katovich et al., Proceedings of the Society for Experimental Biology & Medicine, 1990. 193(2): p. 129-35). Four to six days after implantation, morphine withdrawal was induced with an opioid antagonist (naloxone) that causes a transient increase in TST. In a typical experiment, rats were administered their final dose of test compound 40 minutes prior to naloxone injection. Rats were mildly sedated with ketamine and a thermistor connected to a MacLab data acquisition system (CB Sciences, Dover, N.H.) was taped to the base of the tail. Tail skin temperature was then monitored continuously for 10 minutes to establish a baseline temperature. Naloxone was subsequently administered and TST was measured for an additional […] (total recording time 95 min).
Statistical analysis: To analyze changes in TST induced by naloxone in morphine-dependent rats, all data was analyzed using a two factors repeated measure. The factors were “treatment” and “time” (repeated). The model was fit to test whether there were significant differences in the responses between treatment groups. The data was analyzed at 5 minute intervals from 20 minutes (−20) prior to the naloxone administration (referred to as time 0) to 60 minutes after the treatment. Multiple comparisons (LSD p-values) among the treatment groups at each time point were used for the analysis, however, the changes in TST is greatest at 15 minutes post naloxone administration and this time point provides the best indicator of flush abatement. When appropriate estimation of the ED50 value was calculated. The ED50 value was determined using a log scale and the line was fit between the maximal (15 minutes post naloxone ΔTST) and minimal response (average baseline temperature prior to naloxone). The ED50 value is reported as the dose of test compound that abates 50% of the naloxone-induced flush.
Method used as described in the general method section under morphine-dependent rat model with the following exceptions: in the morphine-dependent model rats were injected intraperitoneally with vehicle (5% DMSO in 5% Cremophor EL) or SSR149415 (V1b receptor antagonist) which may be prepared as described in WO 01/55134, dissolved in 5% DMSO in 5% Cremophor EL and administered at 3.0 and 30 mg/kg 40 minutes prior to naloxone injection (FIGS. 1A and 1B). […] At the highest dose (30 mg/kg) tested antagonism of the V1b receptor produced a 60% abatement of the naloxone-induced flush. […]

For assay [2], the system named is tail skin temperature in ovariectomized rats. The experiment in a line: OVX-induced thermoregulatory dysfunction telemetry model (TST). The settings on record: 30 mg/kg intraperitoneal, 30 minutes prior to onset of dark cycle. The format is in vivo, rat. The method, then:
as §1
Animals: Ovariectomized Sprague-Dawley rats (180-220 g) were obtained from a commercial vendor (Taconic, Germantown, N.Y.) and individually housed under 12 hours light/dark cycle in a room maintained at 25° C. […]
OVX-induced thermoregulatory dysfunction telemetry model: To determine the effect that test compounds had on thermoregulation, TST was monitored in ovariectomized rats by telemetry (6-7 rats/group). […] After a 7 day recovery period rats were administered a vehicle injection and TST monitored continuously for 12 hours (Day 1). Twenty-four hours later rats were administered either vehicle or test compound and TST monitored continuously for 12 hours (Day 2). […]
To analyze changes in TST induced by test compounds in the thermoregulatory dysfunction model a 2-day paradigm was used. […] On Day 2, test compound is administered and TST readings are recorded every 30 minutes as described above. […]

The mark [3] stands for this setting: 30 mg/kg intraperitoneal, 15 minutes post-naloxone.

As to `COc1ccc(S(=O)(=O)N2c3ccc(Cl)cc3[C@](O)(c3ccccc3Cl)[C@@H]2C(=O)N2CCC[C@H]2C(N)=O)cc1OC` [SR49059], in assay [1] (setting [3]), the “effect on naloxone-induced flush at maximal flush (ΔTST)” value (from here on “effect … (ΔTST)”) is “lack efficacy in attenuating the naloxone-induced flush; also recorded: failed to abate the naloxone-induced flush”.
On to `COc1ccc(S(=O)(=O)N2C(=O)C(c3ccccc3OC)(N3C[C@H](O)C[C@H]3C(=O)N(C)C)c3cc(Cl)ccc32)c(OC)c1` (stereo partly drawn) [SSR149415, (2S,4R)-1-[5-Chloro-1-[(2,4-dimethoxyphenyl)-sulfonyl]-3-(2-methoxy-phenyl)-2-oxo-2,3-dihydro-1H-indol-3-yl]-4-hydroxy-N,N-dimethyl-2-pyrrolidine carboxamide], for which the “effect … (ΔTST)” value was “no effect” in assay [1] (3.0 mg/kg intraperitoneal, 15 minutes post-naloxone); “significantly and dose-dependently abated the naloxone-induced flush” in assay [1] (setting [3]). In addition, the “abatement of the naloxone-induced flush” value in assay [1] (30 mg/kg intraperitoneal (highest dose), 40 minutes prior to naloxone) is 60%. Also, the “changes in TST over time, naloxone-induced flush” value in assay [1] (3.0 and 30 mg/kg intraperitoneal, 40 minutes prior to naloxone) was “dose-dependently abates the naloxone-induced flush”. For the same compound, the ED50 in assay [1] (Rattus norvegicus, ip, intraperitoneal, 40 minutes prior to naloxone, maximal flush, 15 minutes post-naloxone, read-out: ED50 value, abatement of naloxone-induced flush) was determined as 12.1 mg/kg. Also, the “change in TST (ΔTST) relative to vehicle, active phase” value in assay [2] was “significant decrease in ΔTST; also recorded: able to restore normal thermoregulation; also recorded: significantly and transiently decreased TST”.
As to `Cc1ccc(F)cc1C(=O)Nc1ccc(C(=O)N2Cc3cccn3Cc3ccccc32)c(Cl)c1` [VPA-985], the “effect … (ΔTST)” value in assay [1] (setting [3]) is listed as “lack efficacy in attenuating the naloxone-induced flush; also recorded: failed to abate the naloxone-induced flush”.
